Where two headings read alike, the source gives them in different places.
Assays:
MS751 cells = test: MTT cell proliferation assay, MS751; type: cell-based, human
Procedure, shortened: (§1)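 Seeding 5,000-10,000 cells/well, overnight attachment; 8 concs, 1 nM–30 μM. MTT ~4 h, formazan solubilized, OD 490 nm. % inhibition vs negative control, mostly duplicate, mean±SE.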

Z138 cells = test: MTT cell proliferation assay, Z138; type: cell-based
Procedure, shortened: as §1

3T3 cells = test: MTT cell proliferation assay, 3T3; type: cell-based, mouse
Procedure, shortened: as §1

[1] = Homo sapiens, MS751, MS751 cells, approximately 64-72 hours incubation, read-out: MTT Assay IC50, MS751
[2] = Homo sapiens, Z-138, Z138 cells, approximately 64-72 hours incubation, read-out: MTT Assay IC50, Z138
[3] = Mus musculus, NIH3T3, 3T3 cells, approximately 64-72 hours incubation, read-out: MTT Assay IC50, 3T3
[4] = MS751 cells, approximately 64-72 hours incubation, read-out: MTT Assay IC50, MS751
[5] = Z138 cells, approximately 64-72 hours incubation, read-out: MTT Assay IC50, Z138
[6] = 3T3 cells, approximately 64-72 hours incubation, read-out: MTT Assay IC50, 3T3
[7] = Homo sapiens, MS751, MS751 cells, eight concentrations 1 nM to 30 μM, incubation approximately 64-72 hours, read-out: MTT Assay IC50, MS751
[8] = Homo sapiens, Z-138, Z138 cells, eight concentrations 1 nM to 30 μM, incubation approximately 64-72 hours, read-out: MTT Assay IC50, Z138
[9] = Mus musculus, NIH3T3, 3T3 cells, eight concentrations 1 nM to 30 μM, incubation approximately 64-72 hours, read-out: MTT Assay IC50, 3T3

Nc1ccc(/C=C/C(=O)NCC2Cc3cc(-c4ccc(CC(=O)N5CCOCC5)cc4)cc(Cl)c3O2)cn1 (stereo not drawn) [Compound 921, (E)-3-(6-aminopyridin-3-yl)-N-((7-chloro-5-(4-(2-morpholino-2-oxoethyl)phenyl)-2,3-dihydrobenzofuran-2-yl)methyl)acrylamide]
IC50 (MS751 cells; [1]): < 0.1 µM | IC50 (Z138 cells; [2]): < 0.1 µM | IC50 (3T3 cells; [3]): 0.1 to 5 µM

CC(=O)c1ccc(-c2cc(Cl)c3c(c2)CC(CNC(=O)/C=C/c2ccc(N)nc2)O3)s1 (single isomer, unassigned) [Compound 309, (E)-N-((5-(5-acetylthiophen-2-yl)-7-chloro-2,3-dihydrobenzofuran-2-yl)methyl)-3-(6-aminopyridin-3-yl)acrylamide]
IC50 (MS751 cells; [4]): 0.1 to 5 µM | IC50 (Z138 cells; [5]): < 0.1 µM | IC50 (3T3 cells; [6]): 5 to 30 µM

O=C(/C=C/c1cccnc1)NCC1Cc2cc(-c3ccc(C(=O)N4CCOCC4)cc3)cc(Cl)c2O1 (stereo not drawn) [Compound 29]
IC50 (MS751 cells; [7]): < 0.1 µM | IC50 (Z138 cells; [8]): < 0.1 µM | IC50 (3T3 cells; [9]): 0.1 to 5 µM

Nc1ccc(/C=C/C(=O)NCC2Cc3cc(-c4ccc(C(=O)N5CCCCC5)cc4)cc(Cl)c3O2)cn1 (stereo not drawn) [Compound 234, (E)-3-(6-aminopyridin-3-yl)-N-((7-chloro-5-(4-(piperidine-1-carbonyl)phenyl)-2,3-dihydrobenzofuran-2-yl)methyl)acrylamide]
IC50 (MS751 cells; [1]): < 0.1 µM | IC50 (Z138 cells; [2]): < 0.1 µM | IC50 (3T3 cells; [3]): 5 to 30 µM

Nc1ccc(/C=C/C(=O)NCC2Cc3cc(-c4ncc(C(=O)N5CCOCC5)cn4)cc(Cl)c3O2)cn1 (stereo not drawn) [Compound 330, (E)-3-(6-Aminopyridin-3-yl)-N-((7-chloro-5-(5-(morpholine-4-carbonyl)pyrimidin-2-yl)-2,3-dihydrobenzofuran-2-yl)methyl)acrylamide]
IC50 (MS751 cells; [1]): < 0.1 µM | IC50 (Z138 cells; [2]): < 0.1 µM | IC50 (3T3 cells; [3]): 5 to 30 µM

Nc1ccc(/C=C/C(=O)NCC2Cc3cc(-c4ccc(C(=O)N5CCOCC5)nn4)cc(Cl)c3O2)cn1 (stereo not drawn) [Compound 331, (E)-3-(6-Aminopyridin-3-yl)-N-((7-chloro-5-(6-(morpholine-4-carbonyl)pyridazin-3-yl)-2,3-dihydrobenzofuran-2-yl)methyl)acrylamide]
IC50 (MS751 cells; [1]): 0.1 to 5 µM | IC50 (Z138 cells; [2]): < 0.1 µM | IC50 (3T3 cells; [3]): 5 to 30 µM

CC(=O)c1ccc(-c2cc(Cl)c3c(c2)CC(CNC(=O)/C=C/c2csc(-c4ccc(F)cc4)n2)O3)s1 (stereo not drawn) [Compound 206, (E)-N-((5-(5-acetylthiophen-2-yl)-7-chloro-2,3-dihydrobenzofuran-2-yl)methyl)-3-(2-(4-fluorophenyl)thiazol-4-yl)acrylamide]
IC50 (MS751 cells; [1]): > 30 µM | IC50 (Z138 cells; [2]): > 30 µM | IC50 (3T3 cells; [3]): > 30 µM

CN(C)C(=O)c1ccc(-c2cc(Cl)c3c(c2)CC(CNC(=O)/C=C/c2ccc(N)nc2)O3)o1 (stereo not drawn) [Compound 324, (E)-5-(2-((3-(6-Aminopyridin-3-yl)acrylamido)methyl)-7-chloro-2,3-dihydrobenzofuran-5-yl)-N,N-dimethylfuran-2-carboxamide]
IC50 (MS751 cells; [1]): < 0.1 µM | IC50 (Z138 cells; [2]): < 0.1 µM | IC50 (3T3 cells; [3]): 5 to 30 µM

CC(=O)c1ccc(-c2cc(Cl)c3c(c2)CC(CNC(=O)/C=C/c2ccc(N)nc2C)O3)s1 (stereo not drawn) [Compound 118, (E)-N-((5-(5-acetylthiophen-2-yl)-7-chloro-2,3-dihydrobenzofuran-2-yl)methyl)-3-(6-amino-2-methylpyridin-3-yl)acrylamide]
IC50 (MS751 cells; [7]): 5 to 30 µM | IC50 (Z138 cells; [8]): 0.1 to 5 µM | IC50 (3T3 cells; [9]): 5 to 30 µM

O=C(/C=C/c1cccnc1)NCC1Cc2cc(-c3ccccc3F)cc(Cl)c2O1 (stereo not drawn) [Compound 18, (E)-N-((7-chloro-5-(2-fluorophenyl)-2,3-dihydrobenzofuran-2-yl)methyl)-3-(pyridin-3-yl)acrylamide]
IC50 (MS751 cells; [7]): 0.1 to 5 µM | IC50 (Z138 cells; [8]): 0.1 to 5 µM | IC50 (3T3 cells; [9]): 5 to 30 µM

Nc1ccc(/C=C/C(=O)NCC2Cc3cc(-c4cc(F)c(C(=O)N5CC(F)(F)C5)c(F)c4)cc(Cl)c3O2)cn1 (stereo not drawn) [Compound 335, (E)-3-(6-aminopyridin-3-yl)-N-((7-chloro-5-(4-(3,3-difluoroazetidine-1-carbonyl)-3,5-difluorophenyl)-2,3-dihydrobenzofuran-2-yl)methyl)acrylamide]
IC50 (MS751 cells; [1]): < 0.1 µM | IC50 (Z138 cells; [2]): < 0.1 µM | IC50 (3T3 cells; [3]): 0.1 to 5 µM

Nc1ccc(/C=C/C(=O)NCC2Cc3c(-c4ccc(C(=O)N5CCOCC5)nc4)ccc(Cl)c3O2)cn1 (stereo not drawn) [Compound 910, (E)-3-(6-aminopyridin-3-yl)-N-((7-chloro-4-(6-(morpholine-4-carbonyl)pyridin-3-yl)-2,3-dihydrobenzofuran-2-yl)methyl)acrylamide]
IC50 (MS751 cells; [1]): 0.1 to 5 µM | IC50 (Z138 cells; [2]): < 0.1 µM | IC50 (3T3 cells; [3]): 5 to 30 µM

CC(=O)c1ccc(-c2cc(Cl)c3c(c2)CC(CNC(=O)/C=C/c2cccnn2)O3)s1 (stereo not drawn) [Compound 279, (E)-N-((5-(5-acetylthiophen-2-yl)-7-chloro-2,3-dihydrobenzofuran-2-yl)methyl)-3-(pyridazin-3-yl)acrylamide]
IC50 (MS751 cells; [7]): 0.1 to 5 µM | IC50 (Z138 cells; [8]): 0.1 to 5 µM | IC50 (3T3 cells; [9]): 0.1 to 5 µM

CCn1nccc1/C=C/C(=O)NCC1Cc2cc(-c3ccc(C(C)=O)s3)cc(Cl)c2O1 (stereo not drawn) [Compound 274, (E)-N-((5-(5-acetylthiophen-2-yl)-7-chloro-2,3-dihydrobenzofuran-2-yl)methyl)-3-(1-ethyl-1H-pyrazol-5-yl)acrylamide]
IC50 (MS751 cells; [7]): 5 to 30 µM | IC50 (Z138 cells; [8]): 5 to 30 µM | IC50 (3T3 cells; [9]): > 30 µM

CCOC(=O)c1ccc(-c2cc(Cl)c3c(c2)CC(CNC(=O)/C=C/c2cccnc2)O3)cc1 (stereo not drawn) [Compound 128, (E)-ethyl 4-(7-chloro-2-((3-(pyridin-3-yl)acrylamido)methyl)-2,3-dihydrobenzofuran-5-yl)benzoate]
IC50 (MS751 cells; [7]): 0.1 to 5 µM | IC50 (Z138 cells; [8]): < 0.1 µM | IC50 (3T3 cells; [9]): 0.1 to 5 µM

CC(=O)c1ccc(-c2cc(Cl)c3c(c2)CC(CNC(=O)/C=C/c2cnc4ccccc4n2)O3)s1 (stereo not drawn) [Compound 151, (E)-N-((5-(5-acetylthiophen-2-yl)-7-chloro-2,3-dihydrobenzofuran-2-yl)methyl)-3-(quinoxalin-2-yl)acrylamide]
IC50 (MS751 cells; [7]): > 30 µM | IC50 (Z138 cells; [8]): > 30 µM | IC50 (3T3 cells; [9]): > 30 µM

CC(=O)c1ccc(-c2cc(Cl)c3c(c2)CC(CNC(=O)/C(C#N)=C/c2ccoc2)O3)s1 (stereo not drawn) [Compound 286, (E)-N-((5-(5-acetylthiophen-2-yl)-7-chloro-2,3-dihydrobenzofuran-2-yl)methyl)-2-cyano-3-(furan-3-yl) acrylamide]
IC50 (MS751 cells; Homo sapiens, MS751, read-out: MTT Assay IC50, MS751): 5 to 30 µM | IC50 (Z138 cells; Homo sapiens, Z-138, read-out: MTT Assay IC50, Z138): 5 to 30 µM | IC50 (3T3 cells; Mus musculus, NIH3T3, read-out: MTT Assay IC50, 3T3): > 30 µM

CC(=O)c1ccc(-c2cc(Cl)c3c(c2)CC(CNC(=O)/C=C/c2cncnc2)O3)s1 (stereo not drawn) [Compound 254, (E)-N-((5-(5-acetylthiophen-2-yl)-7-chloro-2,3-dihydrobenzofuran-2-yl)methyl)-3-(pyrimidin-5-yl)acrylamide]
IC50 (MS751 cells; [7]): > 30 µM | IC50 (Z138 cells; [8]): > 30 µM | IC50 (3T3 cells; [9]): > 30 µM

CN(C)c1ccc(-c2cc(Cl)c3c(c2)CC(CNC(=O)/C=C/c2cccnc2)O3)cc1 (stereo not drawn) [Compound 64, (E)-N-((7-chloro-5-(4-(dimethylamino)phenyl)-2,3-dihydrobenzofuran-2-yl)methyl)-3-(pyridin-3-yl)acrylamide]
IC50 (MS751 cells; [7]): 0.1 to 5 µM | IC50 (Z138 cells; [8]): < 0.1 µM | IC50 (3T3 cells; [9]): 0.1 to 5 µM

CC(=O)c1ccc(-c2cc(Cl)c3c(c2)CC(CNC(=O)/C=C\c2cccnc2)O3)s1 (single isomer, unassigned) [Compound 313, (Z)-N-((5-(5-acetylthiophen-2-yl)-7-chloro-2,3-dihydrobenzofuran-2-yl)methyl)-3-(pyridin-3-yl)acrylamide]
IC50 (MS751 cells; [4]): 0.1 to 5 µM | IC50 (Z138 cells; [5]): 0.1 to 5 µM | IC50 (3T3 cells; [6]): > 30 µM

CCn1ccnc1/C=C/C(=O)NCC1Cc2cc(-c3ccc(C(C)=O)s3)cc(Cl)c2O1 (stereo not drawn) [Compound 191, (E)-N-((5-(5-acetylthiophen-2-yl)-7-chloro-2,3-dihydrobenzofuran-2-yl)methyl)-3-(1-ethyl-1H-imidazol-2-yl)acrylamide]
IC50 (MS751 cells; [1]): 5 to 30 µM | IC50 (Z138 cells; [2]): 5 to 30 µM | IC50 (3T3 cells; [3]): > 30 µM

Nc1ccc(/C=C/C(=O)NCC2Cc3c(-c4ccc(C(=O)N5CC(F)(F)C5)cc4)ccc(Cl)c3O2)cn1 (stereo not drawn) [Compound 340, (E)-3-(6-aminopyridin-3-yl)-N-((7-chloro-4-(4-(3,3-difluoroazetidine-1-carbonyl)phenyl)-2,3-dihydrobenzofuran-2-yl)methyl)acrylamide]
IC50 (MS751 cells; [1]): < 0.1 µM | IC50 (Z138 cells; [2]): 0.1 to 5 µM | IC50 (3T3 cells; [3]): < 0.1 µM

CC(=O)c1ccc(-c2cc(Cl)c3c(c2)CC(CNC(=O)/C=C/c2ccc(-c4ccc(F)cc4)s2)O3)s1 (stereo not drawn) [Compound 297, (E)-N-((5-(5-acetylthiophen-2-yl)-7-chloro-2,3-dihydrobenzofuran-2-yl)methyl)-3-(5-(4-fluorophenyl)thiophen-2-yl)acrylamide]
IC50 (MS751 cells; [1]): > 30 µM | IC50 (Z138 cells; [2]): > 30 µM | IC50 (3T3 cells; [3]): > 30 µM

CCc1nc(C)c(/C=C/C(=O)NCC2Cc3cc(-c4ccc(C(C)=O)s4)cc(Cl)c3O2)[nH]1 (stereo not drawn) [Compound 177, (E)-N-((5-(5-acetylthiophen-2-yl)-7-chloro-2,3-dihydrobenzofuran-2-yl)methyl)-3-(2-ethyl-4-methyl-1H-imidazol-5-yl)acrylamide]
IC50 (MS751 cells; [7]): 0.1 to 5 µM | IC50 (Z138 cells; [8]): 0.1 to 5 µM | IC50 (3T3 cells; [9]): > 30 µM
